Reference: ChEMBL document CHEMBL1126592, “Bicyclic compounds as ring-constrained inhibitors of protein-tyrosine kinase p56lck” (J Med Chem, 1993)

Target: Tyrosine-protein kinase Lck (Homo sapiens, UniProt P06239)
Test: Ability to inhibit autophosphorylation of immunopurified p56Ick

Sequence of Tyrosine-protein kinase Lck (P06239 whole entry): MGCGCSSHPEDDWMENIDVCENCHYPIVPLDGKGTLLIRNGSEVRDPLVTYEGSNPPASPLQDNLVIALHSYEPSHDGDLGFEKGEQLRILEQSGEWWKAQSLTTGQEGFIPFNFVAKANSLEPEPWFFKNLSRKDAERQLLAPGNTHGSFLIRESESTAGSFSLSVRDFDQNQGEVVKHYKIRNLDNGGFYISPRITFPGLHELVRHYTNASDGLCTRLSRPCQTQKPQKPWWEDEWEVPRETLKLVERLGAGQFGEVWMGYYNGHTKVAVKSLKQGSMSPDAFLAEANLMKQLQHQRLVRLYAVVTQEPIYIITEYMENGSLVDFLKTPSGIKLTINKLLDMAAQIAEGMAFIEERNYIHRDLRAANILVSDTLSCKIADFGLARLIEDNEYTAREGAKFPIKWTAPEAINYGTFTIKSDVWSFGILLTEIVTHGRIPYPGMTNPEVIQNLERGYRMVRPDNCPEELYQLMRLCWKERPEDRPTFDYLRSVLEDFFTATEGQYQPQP

Row | IC50 [µM] | Compound
1 | > 2000 | N=c1oc2cc(O)c(O)cc2cc1C(N)=O
2 | 750 | N=c1oc2c(O)c(O)ccc2cc1C(N)=O
3 | 2000 | N#C/C(=C\c1cc(O)c(O)c(O)c1)C(N)=O
4 | 610 | NC(=O)c1cnc2cc(O)c(O)cc2c1
5 | 1500 | N=c1oc2ccccc2cc1C(N)=O
6 | > 2000 | N=c1oc2cc(O)ccc2cc1C(N)=O
7 | 1500 | N#C/C(=C\c1cccc(O)c1)C(N)=O
8 | 100 | N=c1oc2c(O)cccc2cc1C(N)=O
9 | 25 | COC(=O)c1ccc2c(O)c(O)ccc2c1
10 | 22 | N#C/C(=C\c1ccc(O)c(O)c1)C(N)=O
11 | 1000 | N#C/C(=C\c1ccc(O)cc1)C(N)=O
12 | 500 | N#C/C(=C\c1cc(O)cc(O)c1)C(N)=O
13 | 26 | NC(=O)c1ccc2cc(O)c(O)cc2c1
14 | 100 | N=c1oc2ccc(O)cc2cc1C(N)=O

Row | Compound | IC50 [µM]
15 | COC(=O)c1cc2ccc(O)c(O)c2cn1 | 0.2
